In experiment [1] the target is T1, gamma secretase γ and ε cleavage of Fas-APPsw-DD (Homo sapiens, UniProt P49768).
T1 construct: active gamma secretase is endogenously and constitutively produced by the cell cultures; endogenous in cells; host or cells: HEK 293, transfected with Fas-APPsw-DD
In words: Concurrent Aβ and AICD ELISA in Fas-APPsw-DD transfected 293 cells (APP γ versus ε cleavage). Type of experiment: cell-based. As for the experimental part:
Polyclonal antibody AICD ELISA. HEK 293 cells were grown under standard conditions to ˜90% confluence. Cells were harvested, counted, and subsequently plated onto PDL-coated 60 mm dishes at 2×10^6 cells/dish in 5 mL media. The cells were allowed to settle onto the dishes for ˜4 hours. Transfection of various construct into cells was performed using standard techniques using Lipofectamine 2000™ (LF2K) (Invitrogen). Briefly, 2 μg plasmid DNA and 4 μL LF2K were diluted into separate 150 μL aliquots of Opti-MEM (Gibco), and allowed to stand for 10-15 minutes. The two aliquots were then mixed, and the DNA:Lipid complex allowed to form for about 20 minutes. The 300 μL DNA:Lipid complex was then added to the cells in 3 mL fresh media, and incubated overnight. In order to administer potential or known gamma secretase inhibitor compounds to cells, the transfected cells were harvested, replated into PDL-coated 24-well plates at 200,000 cells/well, and allowed to settle onto the plates for ˜4 hours. Cells were washed, and 500 μL fresh media added. […]
The term ‘non-selective’ in this instance refers to lack of selectivity for cell Aβ over Notch signaling (or GammaAPP over GammaNotch). […] The calculated γ/ε selectivity of the non-selective compounds (FIG. 11 and Table I) were 0.7, 1.1, 1.8 and 1.9 for DAPT, 44989, 46719 and the Merck compound, respectively. […]

Experiment [2] deals with T2, gamma secretase cleavage of C99GVP (AICD-GVP) (Homo sapiens, UniProt P49768).
T2 construct: active gamma secretase is endogenously and constitutively produced by the cell cultures; endogenous in cells; host or cells: HEK 293, co-transfected with C99GVP, pG5E1B-luc and pCMV-β-gal
Briefly: Luciferase reporter gene assay, AICD-GVP transactivation from C99GVP in HEK293 cells. Type of experiment: cell-based. The conditions noted are these: C99-GVP, FIG. 5C. As to the method:
Luciferase Reporter Gene Assay: Luciferase reporter assays were carried out 48 hr post-transfection. Cells seeded on 96-well plates (BD Biosciences) were washed once with PBS and harvested in 20 μl of reporter lysis buffer (Promega) per well. After adding 100 μl of luminescent substrate (Promega), the luciferase activity was measured with a MicroLumatPlus microplate luminometer (Berthold Technologies). The β-galactosidase activity was measured similarly, using a luminescent β-galactosidase substrate (BD Biosciences). As a control for transfection efficiency and general effect on transcription, the luciferase activity was normalized by measuring β-galactosidase activity on a duplicate plate. All measurements were done in triplicate and repeated at least three times.
Luciferase Assay. After confirming AICD-GVP generation in HEK cells, its ability to transactivate a luciferase reporter gene that contains Gal4 response elements in the upstream activation sequence (UAS) was tested. […] Some residual luciferase activity remained in the presence of excess gamma secretase inhibitors, even though identical treatment completely abolished AICD production as measured by Western blot (FIG. 5B). […]
In general terms: A reporter such as luciferase makes a cellular process visible.

The subject of experiment [3] is gamma secretase (secreted Aβ40 and Aβ42). Briefly: Aβ sandwich ELISA of media from C99GVP or APP transfected HEK cells treated with inhibitors. Type of experiment: cell-based, Human. As for the experimental part: Inhibitor Treatment of Transfected HEK Cell: The transition state analogue gamma secretase inhibitor-L685,458 (Sigma) and the peptidomimetic inhibitor-DAPT (Dovey, H. F., et al., J Neurochem., 2001; 76:173-181) were dissolved in DMSO to make 20 mM stocks. Similarly, a number of Elan's series of sulfonamide inhibitors were prepared and used as described herein (see, also FIGS. 11-14). Inhibitors were added to cell cultures (e.g., HEK) at the indicated final concentration, and the treated cells were harvested 48 h post-transfection. The metallo-proteinase inhibitor TAPI-1 (Calbiochem) was used at a final concentration of 40 μM. The Aβ-degrading enzyme inhibitors, Bacitracin (Calbiochem) and phosphoramidon (Calbiochem) were used at final concentration of 1 mg/ml and 40 μM, respectively. All inhibitor experiments were performed in triplicate and repeated at least three times.
ELISAs used to quantify different Aβ species were performed using standard techniques as described above and in (Johnson-Wood, K., et al., Proc. Natl. Acad. Sci. U.S.A., 1997; 94: 1550-1555, incorporated by reference). The Aβ40 and Aβ42 peptides in the samples were captured onto 2G3 or 21F12 antibody coated plates, respectively, and detected with a biotinylated 2H3 antibody. The fluorescence signal generated from a streptavidin-alkaline phosphatase conjugate (Roche) was measured with a CytoFlour microplate reader (Applied Biosystems). Synthetic Aβ40 or Aβ42 peptides (Anaspec) were used to generate standard curves (FIG. 10). All measurements were done in triplicate.
Next, Aβ generation was characterized from C99GVP. Wild type HEK cells and the mock-transfection control secreted little Aβ into the conditioned media (FIG. 5D, lane 1). In contrast, transient expression of C99GVP led to robust Aβ production, as measured by IP/Western blot (FIG. 5D) and ELISAs that detect Aβ 40 and Aβ42 species, respectively ([…], top panel). […] Finally, we compared the Aβ-lowering potency of two inhibitors, using either C99GVP or the wild type APP as substrate. As determined by ELISA, the respective IC50 values for the two substrates are essentially identical (FIG. 5E).

Experiment [4] deals with nuclear AICD-GVP in COS-7 cells. Briefly: Immunostaining, subcellular distribution of AICD-GVP in transfected COS-7 cells. Type of experiment: cell-based. As for the experimental part: Immunostaining: Wild type or transiently transfected COS-7 cells (ATCC) were fixed at room temperature with 2% paraformaldehyde in PBS for 20 min and subsequently permeabilized with 0.2% Triton X-100 in PBS for 10 min. C99GVP and mutant substrates as well as AICD-GVP were detected by incubating the samples sequentially with polyclonal anti-VP16 for 2 h and Rhodamine-conjugated donkey anti-goat secondary antibody (Jackson Laboratory Cat. #705-165-003) for 1 h. All staining was visualized on a Bio-Rad MRC 1024ES confocal microscope (Bio-Rad) and captured with a coupled CCD camera.

Regarding `C[C@H](NC(=O)Cc1cc(F)cc(F)c1)C(=O)N[C@H](C(=O)OC(C)(C)C)c1ccccc1` [DAPT], in experiment [1], the “γ/ε selectivity = IC50 AICD/IC50 Aβ” value was 0.7. Moreover, the “luciferase reporter transactivation by AICD-GVP” value in experiment [2] is given as “block luciferase reporter transactivation”. In experiment [3] (5 μM, 24 h, FIG. 5D), the “secreted Aβ (Aβ40 and Aβ42)” value is given as “block secreted Aβ”. Further, in experiment [3] (FIG. 5E), the “Aβ potency (IC50) with C99GVP versus native APP substrate” value is “equal Aβ potency”. In addition, in experiment [4] (C99GVP transfected COS-7 cells, 5 μM, FIG. 5F), the “nuclear staining of AICD-GVP” value is given as “abolished”. Further, the “nuclear staining of JMD chimeras” value in experiment [4] (JMD chimeras in COS-7 cells, FIG. 6G) is given as “abolished”.

(Values after patent US20110306071A1, “Compositions and Methods for Identifying Substrate Specificity of Inhibitors of Gamma Secretase” (ELAN PHARMACEUTICALS, INC., priority 2007, published 2011).)
